# What was measured:
# [1] = molecular target: MscL channel protein (cysteine in its 22nd amino acid position) (Escherichia coli, UniProt P0A742, G22C)
# Method: The activity of the chemically modified MscL is analyzed real time at the single molecule level with patch clamp, a classical electrophysiological technique. This technique allows sealing a patch of membrane, which has embedded channel proteins in it, into the tip of a glass micropipette, and monitoring the ionic current flowing through the open channels in response to different conditions.
# As a mechanosensitive channel, unmodified MscL needs a significant amount of tension on the membrane to gate. In patch clamp conditions, it corresponds to the application of negative pressure almost as high as that causing rupturing of the patched membrane.
# The channel activity was measured by following its conductance.
# The protein from cysteine mutant MscL (cysteine in its 22nd amino acid position) was isolated, modified and reconstituted as explained in Example 2. After reconstitution, giant proteoliposomes were prepared as indicated (A. H. Delcour, B. Martinac, F. R. Blattner, C. Kung, Biophys. J. 1989, 56:631-636). Ten μl rehydrated lipids were placed in 100 μl bath solution and resulting giant liposomes were patched by using glass pipettes with 1 μm tip size. They were made from 100 μl borosilicate capillaries in Sutter 97/IVF micropipette puller. Single channel recordings were performed at +20 mV in symmetrical buffer conditions in 200 mM KCl, 100 mM MgCl2, 5 mM HEPES, pH 6-8. Data were amplified and filtered in Axopatch1D amplifier and sampled in Digidata 1322A digitizer. Recordings were analyzed with pCLAMP8 software.
# (§1) The resulting modified channel was reconstituted in the presence of a fluorescent dye as explained in Example 3 for the calcein efflux experiment. Another sample of the modified channel was prepared for patch clamp experiments as indicated in Example 6.
# Membranes having modified channels were patched at dark or five to ten minutes after illumination with 366 nm light.
# [2] = molecular target: MscL channel protein (G22C, cysteine at 22nd position) (Escherichia coli, UniProt P0A742, G22C); settings: for pH at which channel activity starts: buffers at different pHs; for channel activity of modified protein in response to pH: same sample in the same buffer at different pHs
# Source text: All synthesized compounds were attached to the MscL protein from E. coli via cysteine modification. In this example, the 22nd position of the protein was mutated to a cysteine.
# A membrane pellet fraction was obtained from a fermentor culture of E. coli pB104 cells containing the plasmid PB104 carrying the MscL(G22C)-6His construct. MscL was isolated to near homogeneity via a single nickel-nitriloacetic acid (Ni-NTA) metal-affinity chromatography step.
# The protein modification reaction was stopped and the excess label was removed by applying the sample into a gel filtration column. The protein concentration of elution fractions was determined by Bradford Assay.
# The modified protein was reconstituted in synthetic lipid membranes in order to follow the channel activity. For this purpose, DOPC:Cholesterol:DSPE-PEG (70:20:10 Molar ratio) liposomes were titrated with Triton-X100 until saturation. Titrated liposomes were mixed with modified protein in 1:120 (wt:wt) protein to lipid ratio. Biobeads were used to remove the detergent. A self-quenching dye, calcein, was added and included into the interior of the proteoliposomes during reconstitution.
# Proteoliposomes containing modified MscL protein were analyzed by a fluorescent dye efflux assay. The activity of the channel was measured as an increase in the fluorescence of a reporter molecule, the dye calcein. Calcein is included in the liposome interior at a self-quenching concentration, but when the calcein escapes into the exterior medium, the dilution is such that quenching is completely abolished.
# During reconstitution of the protein into the mixture of synthetic lipids in the presence of a detergent, a self-quenching dye, calcein, is also added into the mixture to a final concentration of 50 mM. After the reconstitution is completed by the removal of the detergent, the calcein-containing liposomal fraction was separated from the unencapsulated free calcein by passing the sample through a Sephadex G50 size exclusion column (FIG. 7A).
# A portion of the liposomal fraction is placed in 2 ml iso-osmotic buffer and the activity of the channels is followed by measuring the increase in fluorescence as calcein becomes dequenched upon being released through the channel protein in response to a stimulus (FIG. 7B). Fluorescence was monitored with a SLM 500 spectrofluorometer Excitation and emission wavelengths were 490 (slit 2 nm) and 520 nm (slit 4 nm), respectively. A positively charged MTS reagent (MTSET) was used as a positive control.
# The MscL protein was modified with the different pH-responsive compounds. The activity of the channel in response to pH was analyzed by the calcein efflux assay. In order to do that, the same buffer at different pHs were prepared and the same sample is analyzed in each buffer.
# The MscL protein was modified with a light-sensitive compound. The activity of the channel was analyzed in response to pH. After measuring the initial fluorescence value for samples at each pH, they were exposed to 366 nm light for five to ten minutes. Then, the measurement was continued as before.
# The protein from cysteine mutant MscL (cysteine in its 22nd amino acid position) was isolated and modified as explained in Example 2, except that the light-responsive compound E (see FIG. 12c) (P6—C1[X═I]) was dissolved in DM50 and incubated with the protein at a 1:500 molar ratio (protein:compound) for 45 minutes.
# as §1
# The protein was isolated and modified as in Example 2 and reconstituted in the presence of calcein as indicated in Example 3.
# [3] = molecular target: double cysteine MscL mutant (22nd and 23rd positions) (Escherichia coli, UniProt P0A742, G22C/V23C)
# Source text: In order to further improve modulation of the activity of chemically modified MscL, in addition to the amino acid at the 22nd position of the channel, the 23rd position is also replaced with cysteine. This way, if all the subunits are modified, one can introduce two times more charge.
# This example compares the single- and double-cysteine mutants for their performance in efflux from proteoliposomes.
# The protein from each mutant was obtained and modified with the Compound C (Q1[R1═R2=Me]-L1[n=2]—C3), as explained in Example 2, and the reconstitution for calcein efflux assay was as in Example 3.
# [4] = Solubility of the product in common solvents; format: physicochemical
# Chain of MscL channel protein (G22C, cysteine at 22nd position) (P0A742 whole entry G22C): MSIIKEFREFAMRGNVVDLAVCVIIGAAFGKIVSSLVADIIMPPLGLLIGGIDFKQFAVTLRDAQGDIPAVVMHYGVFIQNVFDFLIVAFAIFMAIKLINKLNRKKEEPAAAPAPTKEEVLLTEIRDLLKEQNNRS
# Chain of MscL channel protein (cysteine in its 22nd amino acid position) (P0A742 whole entry G22C): as above
# Chain of double cysteine MscL mutant (22nd and 23rd positions) (P0A742 whole entry G22C/V23C): as the sequence (P0A742 whole entry G22C) above, with V23C counted along it
smiles,measurement,setting,value
CNCC(=O)OCCSS(C)(=O)=O [compound B],channel gating in patch clamp at pH 6.2,"[1]; pH 6.2, n=4",gated even without any applied negative pressure
same,"mean negative pressure applied (until membrane rupture, no gating)","[1]; pH 7.2, n=10",79 mmHg
same,channel activity in patch clamp at pH 7.2,"[1]; pH 7.2, n=10, negative pressure applied until the patched membrane ruptured",did not give any activity
same,pH at which channel activity starts,[2],< 8 pH
same,pKa,[2]; compound attached to MscL,approximately 8
same,channel activity of modified protein in response to pH,[2],pH-dependent activation
CN(C)CC(=O)OCCSS(C)(=O)=O [compound C],"release of liposomal content at high pH, double mutant",[3]; high pH,did not release the liposomal content
same,"release at low pH, double mutant compared with single mutant","[3]; low pH, two separate experiments",better release
same,pH dependence of gating in patch clamp,[1]; different pHs,gated only at low pH environment
same,channel gating in patch clamp at pH 6.3,[1]; pH 6.3,spontaneous gating
same,pH at which channel activity starts,[2],~7.03 pH
same,"release of liposomal content at high pH, single mutant",[2]; high pH,did not release the liposomal content
same,channel activity at pH 7.5,[2]; pH 7.5,no activity
CS(=O)(=O)SCCOC(=O)CN [compound A],channel activity at physiological pH,[2]; physiological pH,some activity
same,channel activity of modified protein in response to pH,[2],"pH-dependent activation, especially at lower pHs"
"C[N+](C)(C)CCSS(C)(=O)=O.[Br-] [MTSET, [2-(Trimethylammonium)-ethyl]-methanethiosulfonate bromide, reference compound]",channel opening after reaction with free sulfhydryl at 22nd position (positive control),[2]; MTSET 0.8 mM final concentration as trigger,always opens the channel
"COc1cc(COC(=O)NCCSS(C)(=O)=O)c([N+](=O)[O-])cc1OC [compound D, methanethiosulfonic acid S-[2-(4,5-dimethoxy-2-nitro-benzyloxycarbonylamino)-ethyl] ester]",channel activity after cleavage of the light-sensitive part,"[2]; after 366 nm light for five to ten minutes, different pHs",pH-dependent activity
same,channel activity before photolysis,"[2]; no illumination, different pHs",stayed inactive until the photolysis occurs
same,solubility in DMF and DMSO,"[4]; DMF, DMSO",soluble
same,solubility in dichloromethane and chloroform,"[4]; dichloromethane, chloroform",a little soluble
same,solubility in other common solvents,[4]; other common solvents,very badly soluble
"COc1cc(COC(=O)CI)c([N+](=O)[O-])cc1OC [compound E, 4.5-dimethoxy-2-nitrobenzyl 2-iodoacetate]",channel gating in patch clamp at dark,"[1]; dark, negative pressure up to membrane rupture",no channel gating
same,channel gating in patch clamp after illumination,"[1]; five to ten minutes after illumination with 366 nm light, no tension",gated simultaneously with no tension
same,release of fluorescent dye in the dark,"[2]; dark, iso-osmotic conditions",did not give any release
same,release of fluorescent dye after illumination,"[2]; exposed to ultraviolet light, iso-osmotic conditions",released the fluorescent dye as soon as proteoliposomes were exposed to ultraviolet light
